Values of other authors, collected in patent publication US7199111B2, “Aqueous ifosfamide compositions for parenteral administration and a process for their preparations” (Bharat Serums & Vaccines Ltd., priority 2002, dated 2007).

Experiments:
mouse = conditions: intravenous administration, reported
[1] = Ifosfamide in water

For `O=P1(NCCCl)OCCCN1CCCl` (centres unmarked) [Ifosfamide, 3-(2-chloroethyl)-2-[(2-chloroethyl)amino]-tetrahydro-2H-1,3,2-oxazaphosphorin-2-oxide], the LD50 (mouse) is given as 338 mg/kg body weight and the water solubility [1] is given as “about 100 mg/ml”.
